Source: patent US10588893B2, “Ointment containing an oxazole compound” (OTSUKA PHARMACEUTICAL CO., LTD., priority 2015, dated 2020)

Columns and labels:
[1] = Miscibility of compound (11) solvent solution with petrolatum; assay type: physicochemical
Excerpt: (§1) To select a solvent for dissolving compound (11) in preparing an ointment containing compound (11), the solubility of compound (11) in various solvents was studied. […] Such a case may result in precipitation of compound (11). Thus, a solvent that has a high solubility of compound (11) but that has […] miscibility (compatibility) with petrolatum or paraffin is relatively preferable for use.

[2] = Solubility of compound (11) in various solvents; assay type: physicochemical
Excerpt: as §1

CCOc1ccccc1C(=O)NCc1coc(-c2ccc(OC(F)F)c(OC(C)C)c2)n1 [Compound (11)]
Miscibility of Compound (11) Solvent Solution with Petrolatum ([1]; solvent: Decyl oleate): Miscible | Miscibility of Compound (11) Solvent Solution with Petrolatum ([1]; solvent: Diethyl sebacate): Miscible | Miscibility of Compound (11) Solvent Solution with Petrolatum ([1]; solvent: Diisopropyl adipate): Miscible | Miscibility of Compound (11) Solvent Solution with Petrolatum ([1]; solvent: Hexyldodecanol): Miscible | Miscibility of Compound (11) Solvent Solution with Petrolatum ([1]; solvent: Isopropyl myristate): Miscible | Miscibility of Compound (11) Solvent Solution with Petrolatum ([1]; solvent: Isostearic acid): Miscible | Miscibility of Compound (11) Solvent Solution with Petrolatum ([1]; solvent: Isostearyl alcohol): Miscible | Miscibility of Compound (11) Solvent Solution with Petrolatum ([1]; solvent: Liquid Paraffin): Miscible | Miscibility of Compound (11) Solvent Solution with Petrolatum ([1]; solvent: Olive oil): Miscible | Miscibility of Compound (11) Solvent Solution with Petrolatum ([1]; solvent: Propylene carbonate): Immiscible | Miscibility of Compound (11) Solvent Solution with Petrolatum ([1]; solvent: Triacetine): Immiscible | solubility of compound (11), in words ([2]; in triacetin and propylene carbonate): relatively high | Solubility (W/W %) ([2]; solvent: Decyl oleate): 2.6 W/W % | Solubility (W/W %) ([2]; solvent: Diethyl sebacate): 42.6 W/W % | Solubility (W/W %) ([2]; solvent: Diisopropyl adipate): 40.3 W/W % | Solubility (W/W %) ([2]; solvent: Hexyldodecanol): 5.4 W/W % | Solubility (W/W %) ([2]; solvent: Isopropyl myristate): 6.0 W/W % | Solubility (W/W %) ([2]; solvent: Isostearic acid): 19.8 W/W % | Solubility (W/W %) ([2]; solvent: Isostearyl alcohol): 5.1 W/W % | Solubility (W/W %) ([2]; solvent: Liquid Paraffin): 0.1 W/W % | Solubility (W/W %) ([2]; solvent: Olive oil): 6.1 W/W % | Solubility (W/W %) ([2]; solvent: Propylene carbonate): 56.9 W/W % | Solubility (W/W %) ([2]; solvent: Triacetine): 32.5 W/W %
